Experimental data reported in patent US10087170B2, “Compound, photosensitive resin composition including the same, and color filter” (SAMSUNG SDI CO., LTD., priority 2016, dated 2018).
Blank lines part the entries; values can stand above or below the compound they belong to.

Test: Evaluation 1: Solubility in organic solvents
Type: physicochemical
Conditions: 0.5 g compound, stirred at 25° C. and 100 rpm for 1 hour; for Amount of dissolved compound (wt %) Chloroform: solvent chloroform; for Amount of dissolved compound (wt %) Diacetone alcohol: solvent diacetone alcohol
Text: Solubility Evaluation Reference
X: solubility of less than 1 wt %
∘: solubility of greater than or equal to 1 wt % and less than 5 wt %
⊚: solubility of greater than or equal to 5 wt %

Compound: CCN(CCOC(=O)NCCCCCCNC(=O)OCCN(CC)c1ccc2c(-c3ccccc3S(=O)(=O)[O-])c3ccc(=[N+](CC)CC)cc-3oc2c1)c1ccc2c(-c3ccccc3S(=O)(=O)[O-])c3ccc(=[N+](CC)CC)cc-3oc2c1 [Chemical Formula 9]
Amount of dissolved compound (wt %) Chloroform: ◯ (solubility of greater than or equal lo 1 wt % and less than 5 wt %)
Amount of dissolved compound (wt %) Diacetone alcohol: ◯ (solubility of greater than or equal lo 1 wt % and less than 5 wt %)

Compound: C=CC(=O)OCC[N+](CC)=c1ccc2c(-c3ccccc3S(=O)(=O)[O-])c3ccc(N(CC)CCCCCCN(CC)c4ccc5c(-c6ccccc6S(=O)(=O)[O-])c6ccc(=[N+](CC)CC)cc-6oc5c4)cc3oc-2c1 [Chemical Formula 19]
Amount of dissolved compound (wt %) Chloroform: ⊚ (solubility of greater than or equal to 5 wt %)
Amount of dissolved compound (wt %) Diacetone alcohol: ⊚ (solubility of greater than or equal to 5 wt %)

Compound: CCN(CCCCCCN(CC)c1ccc2c(-c3ccccc3S(=O)(=O)[O-])c3ccc(=[N+](CC)CC)cc-3oc2c1)c1ccc2c(-c3ccccc3S(=O)(=O)[O-])c3ccc(=[N+](CC)CC)cc-3oc2c1 [Chemical Formula 8]
Amount of dissolved compound (wt %) Chloroform: ◯ (solubility of greater than or equal lo 1 wt % and less than 5 wt %)
Amount of dissolved compound (wt %) Diacetone alcohol: ◯ (solubility of greater than or equal lo 1 wt % and less than 5 wt %)

Compound: C=C(C)C(=O)OCCNC(=O)OCC[N+](CC)=c1ccc2c(-c3ccccc3S(=O)(=O)[O-])c3ccc(N(CC)CCCCCCN(CC)c4ccc5c(-c6ccccc6S(=O)(=O)[O-])c6ccc(=[N+](CC)CCOC(=O)NCCOC(=O)C(=C)C)cc-6oc5c4)cc3oc-2c1 [Chemical Formula 14]
Amount of dissolved compound (wt %) Chloroform: ⊚ (solubility of greater than or equal to 5 wt %)
Amount of dissolved compound (wt %) Diacetone alcohol: ⊚ (solubility of greater than or equal to 5 wt %)

Compound: CCN(CCOC(=O)NCC1CCCC(CNC(=O)OCCN(CC)c2ccc3c(-c4ccccc4S(=O)(=O)[O-])c4ccc(=[N+](CC)CC)cc-4oc3c2)C1)c1ccc2c(-c3ccccc3S(=O)(=O)[O-])c3ccc(=[N+](CC)CC)cc-3oc2c1 (stereo not drawn) [Chemical Formula 11]
Amount of dissolved compound (wt %) Chloroform: ◯ (solubility of greater than or equal lo 1 wt % and less than 5 wt %)
Amount of dissolved compound (wt %) Diacetone alcohol: ◯ (solubility of greater than or equal lo 1 wt % and less than 5 wt %)

Compound: C=C(C)C(=O)OCCNC(=O)OCC[N+](CC)=c1ccc2c(-c3ccccc3S(=O)(=O)[O-])c3ccc(N(CC)CCCCCCN(CC)c4ccc5c(-c6ccccc6S(=O)(=O)[O-])c6ccc(=[N+](CC)CC)cc-6oc5c4)cc3oc-2c1 [Chemical Formula 21]
Amount of dissolved compound (wt %) Chloroform: ⊚ (solubility of greater than or equal to 5 wt %)
Amount of dissolved compound (wt %) Diacetone alcohol: ⊚ (solubility of greater than or equal to 5 wt %)

Amount of dissolved compound (wt %) Chloroform: X (solubility of less than 1 wt %)
Amount of dissolved compound (wt %) Diacetone alcohol: X (solubility of less than 1 wt %)
Compound: CCN(CC)c1ccc2c(-c3ccccc3S(=O)(=O)[O-])c3ccc(=[N+](CC)CC)cc-3oc2c1 [Chemical Formula X, reference compound]

Compound: C=C(C)C(=O)OCCNC(=O)OCC[N+](CC)=c1ccc2c(-c3ccccc3S(=O)(=O)[O-])c3ccc(N(C)CCCCCCN(C)c4ccc5c(-c6ccccc6S(=O)(=O)[O-])c6ccc(=[N+](CC)CCOC(=O)NCCOC(=O)C(=C)C)cc-6oc5c4)cc3oc-2c1 [Chemical Formula 13]
Amount of dissolved compound (wt %) Chloroform: ⊚ (solubility of greater than or equal to 5 wt %)
Amount of dissolved compound (wt %) Diacetone alcohol: ⊚ (solubility of greater than or equal to 5 wt %)

Compound: C=CC(=O)OCC[N+](CC)=c1ccc2c(-c3ccccc3S(=O)(=O)[O-])c3ccc(N(CC)CCCCCCN(CC)c4ccc5c(-c6ccccc6S(=O)(=O)[O-])c6ccc(=[N+](CC)CCOC(=O)C=C)cc-6oc5c4)cc3oc-2c1 [Chemical Formula 17]
Amount of dissolved compound (wt %) Chloroform: ⊚ (solubility of greater than or equal to 5 wt %)
Amount of dissolved compound (wt %) Diacetone alcohol: ⊚ (solubility of greater than or equal to 5 wt %)

Compound: CCN(CCOC(=O)CCCCCCC(=O)OCCN(CC)c1ccc2c(-c3ccccc3S(=O)(=O)[O-])c3ccc(=[N+](CC)CC)cc-3oc2c1)c1ccc2c(-c3ccccc3S(=O)(=O)[O-])c3ccc(=[N+](CC)CC)cc-3oc2c1 [Chemical Formula 10]
Amount of dissolved compound (wt %) Chloroform: ◯ (solubility of greater than or equal lo 1 wt % and less than 5 wt %)
Amount of dissolved compound (wt %) Diacetone alcohol: ◯ (solubility of greater than or equal lo 1 wt % and less than 5 wt %)

Compound: C=C(C)C(=O)OCC[N+](CC)=c1ccc2c(-c3ccccc3S(=O)(=O)[O-])c3ccc(N(CC)CCCCCCN(CC)c4ccc5c(-c6ccccc6S(=O)(=O)[O-])c6ccc(=[N+](CC)CCOC(=O)C(=C)C)cc-6oc5c4)cc3oc-2c1 [Chemical Formula 18]
Amount of dissolved compound (wt %) Chloroform: ⊚ (solubility of greater than or equal to 5 wt %)
Amount of dissolved compound (wt %) Diacetone alcohol: ⊚ (solubility of greater than or equal to 5 wt %)

Compound: CC[N+](CC)=c1ccc2c(-c3ccccc3S(=O)(=O)[O-])c3ccc(N(C)CCCCCCN(C)c4ccc5c(-c6ccccc6S(=O)(=O)[O-])c6ccc(=[N+](CC)CC)cc-6oc5c4)cc3oc-2c1 [Chemical Formula 7]
Amount of dissolved compound (wt %) Chloroform: ◯ (solubility of greater than or equal lo 1 wt % and less than 5 wt %)
Amount of dissolved compound (wt %) Diacetone alcohol: ◯ (solubility of greater than or equal lo 1 wt % and less than 5 wt %)

Compound: C=C(C)C(=O)OCC[N+](CC)=c1ccc2c(-c3ccccc3S(=O)(=O)[O-])c3ccc(N(CC)CCCCCCN(CC)c4ccc5c(-c6ccccc6S(=O)(=O)[O-])c6ccc(=[N+](CC)CC)cc-6oc5c4)cc3oc-2c1 [Chemical Formula 20]
Amount of dissolved compound (wt %) Chloroform: ⊚ (solubility of greater than or equal to 5 wt %)
Amount of dissolved compound (wt %) Diacetone alcohol: ⊚ (solubility of greater than or equal to 5 wt %)

Compound: CC[N+](CC)=c1ccc2c(-c3ccccc3S(=O)(=O)[N-]S(=O)(=O)C(F)(F)F)c3ccc(N(C)CCCCCCN(C)c4ccc5c(-c6ccccc6S(=O)(=O)[N-]S(=O)(=O)C(F)(F)F)c6ccc(=[N+](CC)CC)cc-6oc5c4)cc3oc-2c1 [Chemical Formula 12]
Amount of dissolved compound (wt %) Chloroform: ◯ (solubility of greater than or equal lo 1 wt % and less than 5 wt %)
Amount of dissolved compound (wt %) Diacetone alcohol: ◯ (solubility of greater than or equal lo 1 wt % and less than 5 wt %)

Compound: CCN(CCOC(=O)NC1CCC(CC2CCC(NC(=O)OCCN(CC)c3ccc4c(-c5ccccc5S(=O)(=O)[O-])c5ccc(=[N+](CC)CC)cc-5oc4c3)CC2)CC1)c1ccc2c(-c3ccccc3S(=O)(=O)[O-])c3ccc(=[N+](CC)CC)cc-3oc2c1 (stereo not drawn) [Chemical Formula 16]
Amount of dissolved compound (wt %) Chloroform: ◯ (solubility of greater than or equal lo 1 wt % and less than 5 wt %)
Amount of dissolved compound (wt %) Diacetone alcohol: ◯ (solubility of greater than or equal lo 1 wt % and less than 5 wt %)
